Experimental data reported in patent US9981972B2, “N-hydroxy bicyclic hydantoin carbamates as tools for identification of serine hydrolase targets” (ABIDE THERAPEUTICS, INC., priority 2014, dated 2018).

How the values were obtained:
Assay in all cases: Gel-based competitive ABPP in vitro, mouse brain membrane proteome
Format in all cases: biochemical
[1] = biological target: T1, ABHD3 (Mus musculus, UniProt Q91ZH7); settings: mouse brain (mem) proteome
T1 construct: from tissue; host or cells: mouse brain, membrane fraction
T1 sequence (Q91ZH7 1-411): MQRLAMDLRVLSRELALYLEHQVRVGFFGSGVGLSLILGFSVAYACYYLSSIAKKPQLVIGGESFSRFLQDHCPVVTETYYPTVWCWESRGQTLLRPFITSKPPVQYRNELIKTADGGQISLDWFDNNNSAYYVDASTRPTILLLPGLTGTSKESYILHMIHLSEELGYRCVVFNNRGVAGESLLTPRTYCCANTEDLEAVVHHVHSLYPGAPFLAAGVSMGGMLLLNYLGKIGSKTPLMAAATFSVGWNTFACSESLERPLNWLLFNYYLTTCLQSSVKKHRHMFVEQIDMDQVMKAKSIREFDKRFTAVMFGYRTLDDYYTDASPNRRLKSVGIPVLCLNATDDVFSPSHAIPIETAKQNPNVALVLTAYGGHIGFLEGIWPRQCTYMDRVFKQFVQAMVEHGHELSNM
Method: (§1) Assay Overview: The purpose of this assay was to determine whether test compounds can inhibit LYPLA1 and LYPLA2 in a complex proteomic lysate and to assess anti-target inhibition using a competitive activity-based proteomic profiling (ABPP) assay. In this assay, a complex proteome endogenously expressing LYPLA1/2 was incubated with test compound followed by reaction with a rhodamine-conjugated fluorophosphonate (FP-Rh) serine-hydrolase specific activity-based probe. The reaction products were separated by SDS-PAGE and visualized in-gel using a flatbed fluorescence scanner. The percentage activity remaining was determined by measuring the integrated optical density of the bands. […] Percent inhibition was calculated relative to a DMSO (no compound) control.
(§2) Protocol Summary: Mouse brain membrane proteome (50 μL reaction volume, 1 mg/mL in DPBS) was treated with 0.1-100 μM test compound (1 μL of a 50× stock in DMSO) for 30 minutes at 37° C. FP-Rh (1 μL of 50× stock in DMSO, Thermo #88318) was added to a final concentration of 2 μM. The reactions were incubated for 30 minutes at 25° C., quenched with 16 μL 4×SDS-PAGE loading buffer (reducing), separated by SDS-PAGE and visualized by in-gel fluorescent scanning. The percentage activity remaining was determined by measuring the integrated optical density of the bands relative to a DMSO-only (no compound) control. Assay Cutoff: Compounds with ≥50% inhibition of targets at 1 μM test compound concentration were considered active.

[2] = biological target: T2, ABHD12 (Mus musculus, UniProt Q99LR1); settings: mouse brain (mem) proteome
T2 construct: from tissue; host or cells: mouse brain, membrane fraction
T2 sequence (Q99LR1 1-398): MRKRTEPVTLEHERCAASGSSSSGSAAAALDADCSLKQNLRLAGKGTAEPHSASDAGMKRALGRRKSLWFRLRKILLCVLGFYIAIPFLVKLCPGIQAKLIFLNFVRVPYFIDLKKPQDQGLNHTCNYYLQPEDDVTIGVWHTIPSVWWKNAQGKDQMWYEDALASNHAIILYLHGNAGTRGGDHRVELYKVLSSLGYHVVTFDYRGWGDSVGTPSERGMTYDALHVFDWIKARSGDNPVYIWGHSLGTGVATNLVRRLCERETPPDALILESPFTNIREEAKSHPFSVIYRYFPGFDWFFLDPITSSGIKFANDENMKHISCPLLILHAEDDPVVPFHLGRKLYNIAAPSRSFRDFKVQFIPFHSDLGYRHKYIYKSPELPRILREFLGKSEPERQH
Method: as §1, §2

[3] = biological target: T3, PLA2G7 (Mus musculus, UniProt Q60963); settings: mouse brain (mem) proteome
T3 construct: from tissue; host or cells: mouse brain, membrane fraction
T3 sequence (Q60963 22-440): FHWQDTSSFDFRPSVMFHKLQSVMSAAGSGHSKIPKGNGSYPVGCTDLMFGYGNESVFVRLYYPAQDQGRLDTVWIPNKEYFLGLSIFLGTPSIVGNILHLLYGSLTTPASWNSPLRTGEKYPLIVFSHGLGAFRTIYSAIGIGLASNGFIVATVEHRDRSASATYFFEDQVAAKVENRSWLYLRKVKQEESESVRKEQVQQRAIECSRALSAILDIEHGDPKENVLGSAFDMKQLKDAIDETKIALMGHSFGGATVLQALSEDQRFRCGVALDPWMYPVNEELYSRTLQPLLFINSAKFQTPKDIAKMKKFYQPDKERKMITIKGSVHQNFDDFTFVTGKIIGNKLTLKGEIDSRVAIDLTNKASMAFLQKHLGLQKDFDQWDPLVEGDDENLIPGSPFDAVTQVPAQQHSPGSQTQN
Method: as §1, §2

[4] = biological target: T4, LYPLA1 (Mus musculus, UniProt P97823)
T4 construct: a complex proteome endogenously expressing LYPLA1/2 was incubated with test compound; from tissue; host or cells: mouse brain, membrane fraction
T4 sequence (P97823 whole entry): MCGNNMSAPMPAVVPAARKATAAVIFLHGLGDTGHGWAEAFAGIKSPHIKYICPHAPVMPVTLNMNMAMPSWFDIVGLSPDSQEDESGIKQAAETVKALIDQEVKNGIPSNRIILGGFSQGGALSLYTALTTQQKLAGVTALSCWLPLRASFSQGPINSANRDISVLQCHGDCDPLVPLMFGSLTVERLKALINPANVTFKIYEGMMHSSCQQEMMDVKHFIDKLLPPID
Summary of the method: (§3)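 Mouse brain membrane proteome (1 mg/mL in DPBS) was treated with compound (0.1-100 μM) for 30 min at 37 °C, then labeled with FP-Rh (2 μM final, 30 min, 25 °C). Bands were resolved by SDS-PAGE and scanned in-gel, with inhibition taken from band optical density versus DMSO. Targets counted as active or anti-targets at ≥50% inhibition.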

[5] = biological target: T5, LYPLA2 (Mus musculus, UniProt Q9WTL7)
T5 construct: a complex proteome endogenously expressing LYPLA1/2 was incubated with test compound; from tissue; host or cells: mouse brain, membrane fraction
T5 sequence (Q9WTL7 whole entry): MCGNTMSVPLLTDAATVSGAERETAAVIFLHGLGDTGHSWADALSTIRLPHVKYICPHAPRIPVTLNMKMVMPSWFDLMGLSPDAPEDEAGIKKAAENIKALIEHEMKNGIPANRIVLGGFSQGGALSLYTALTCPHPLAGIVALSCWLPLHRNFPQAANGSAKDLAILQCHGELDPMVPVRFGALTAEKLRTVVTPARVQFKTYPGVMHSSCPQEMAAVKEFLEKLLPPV
Summary of the method: as §3

[6] = 20 μM, mouse brain (mem) proteome

SMILES | ABHD3 in vitro enzyme activity, % @ 10 μM [1] [% @] | ABHD12 in vitro enzyme activity, % @ 10 μM [2] [% @] | PLA2G7 in vitro enzyme activity, % @ 1 μM [3] [% @] | LYPLA1 in vitro enzyme activity, % @ 10 μM ([4]; mouse brain (mem) proteome) [% @] | LYPLA2 in vitro enzyme activity, % @ 10 μM ([5]; mouse brain (mem) proteome) [% @] | PLA2G7 in vitro enzyme activity, % @ 10 μM [3] [% @] | LYPLA1 in vitro enzyme activity, % @ 1 μM ([4]; mouse brain (mem) proteome) [% @] | LYPLA2 in vitro enzyme activity, % @ 1 μM ([5]; mouse brain (mem) proteome) [% @] | also measured
COc1ccc(N2CCN(C(=O)ON3C(=O)C4CN(CC5CCN(Cc6ccccc6)CC5)CCN4C3=O)CC2)cc1 (centres unmarked) [Compound 52, 7-((1-benzylpiperidin-4-yl)methyl)-1,3-dioxo-hexahydroimidazo[1,5-a]pyrazin-2(3H)-yl 4-(4-methoxyphenyl)piperazine-1-carboxylate] | 0 | 0 | 50 | 0 | 0 | – | – | – | –
O=C(ON1C(=O)[C@@H]2CN(C(=O)N3CCOCC3)CCN2C1=O)N1CCC(CCc2ccc(Cl)cc2)CC1 [Compound 50, (S)-7-(morpholine-4-carbonyl)-1,3-dioxohexahydroimidazo[1,5-a]pyrazin-2(3H)-yl 4-(4-chloro-phenethyl)piperidine-1-carboxylate] | 0 | 0 | – | – | – | 100 | 100 | 100 | –
C#Cc1ccc(CCC2CCN(C(=O)ON3C(=O)[C@H]4CN(C(=O)N5CCOCC5)CCN4C3=O)CC2)cc1 [Compound 49, (R)-7-(morpholine-4-carbonyl)-1,3-dioxo-hexahydroimidazo[1,5-a]pyrazin-2(3H)-yl 4-(4-ethynylphenethyl)piperidine-1-carboxylate] | 0 | 0 | – | – | – | 100 | 75 | 75 | –
O=C(ON1C(=O)[C@H]2CN(C(=O)N3CCOCC3)CCN2C1=O)N1CCC(CCc2ccc(Cl)cc2)CC1 [Compound 51, (R)-7-(morpholine-4-carbonyl)-1,3-dioxohexahydroimidazo[1,5-a]pyrazin-2(3H)-yl 4-(4-chloro-phenethyl)piperidine-1-carboxylate] | 0 | 0 | – | – | – | 100 | 100 | 100 | –
C#Cc1ccc(CCC2CCN(C(=O)ON3C(=O)[C@@H]4CN(C(=O)N5CCOCC5)CCN4C3=O)CC2)cc1 [Compound 48, (S)-7-(morpholine-4-carbonyl)-1,3-dioxo-hexahydroimidazo[1,5-a]pyrazin-2(3H)-yl 4-(4-ethynylphenethyl)piperidine-1-carboxylate] | 0 | 50 | – | – | – | 75 | 75 | 75 | –
C#CCOc1ccc(N2CCN(C(=O)ON3C(=O)[C@@H]4CN(CC5CCN(Cc6ccccc6)CC5)CCN4C3=O)CC2)cc1 [Compound 46, (S)-7-((1-benzylpiperidin-4-yl)methyl)-1,3-dioxo-hexahydroimidazo[1,5-a]pyrazin-2(3H)-yl 4-(4-(prop-2-ynyloxy)phenyl)piperazine-1-carboxylate] | 0 | 0 | 100 | 50 | 50 | – | – | – | –
C#Cc1ccc(CCC2CCN(C(=O)ON3C(=O)C4CN(C(=O)N5CCOCC5)CCN4C3=O)CC2)cc1 (centres unmarked) [Compound 53, 7-(morpholine-4-carbonyl)-1,3-dioxo-hexahydroimidazo[1,5-a]pyrazin-2(3H)-yl 4-(4-ethynylphenethyl)piperidine-1-carboxylate] | 0 | 50 | – | – | – | 0 | 75 | 75 | –
COc1ccc(N2CCN(C(=O)ON3C(=O)[C@H]4CN(CC5CCN(Cc6ccccc6)CC5)CCN4C3=O)CC2)cc1 [Compound 43, (R)-7-((1-benzylpiperidin-4-yl)methyl)-1,3-dioxo-hexahydroimidazo[1,5-a]pyrazin-2(3H)-yl 4-(4-methoxyphenyl)piperazine-1-carboxylate] | 0 | 0 | 100 | 0 | 0 | – | – | – | –
O=C(ON1C(=O)C2CN(C(=O)N3CCOCC3)CCN2C1=O)N1CCC(CCc2ccc(Cl)cc2)CC1 (centres unmarked) [Compound 1, 7-(morpholine-4-carbonyl)-1,3-dioxohexahydroimidazo[1,5-a]pyrazin-2(3H)-yl 4-(4-chloro-phenethyl)piperidine-1-carboxylate] | – | – | – | – | – | – | – | – | inhibition at 1 µM ([4]; 1 μM compound, 30 min, one replicate, read-out: LYPLA1 % INH 1 μM): 100%; inhibition at 10 µM ([4]; 10 μM compound, 30 min, one replicate, read-out: LYPLA1 % INH 10 μM): 100%; inhibition at 100 µM ([4]; 100 μM compound, 30 min, one replicate, read-out: LYPLA1 % INH 100 μM): 100%; inhibition at 1 µM ([5]; 1 μM compound, 30 min, one replicate, read-out: LYPLA2 % INH 1 μM): 100%; inhibition at 10 µM ([5]; 10 μM compound, 30 min, one replicate, read-out: LYPLA2 % INH 10 μM): 100%; inhibition at 100 µM ([5]; 100 μM compound, 30 min, one replicate, read-out: LYPLA2 % INH 100 μM): 100%
C#CCOc1ccc(N2CCN(C(=O)ON3C(=O)[C@H]4CN(Cc5ccc(Oc6ccccc6)cc5)CCN4C3=O)CC2)cc1 [Compound 45, (R)-1,3-dioxo-7-(4-phenoxybenzyl)-hexahydroimidazo[1,5-a]pyrazin-2(3H)-yl 4-(4-(prop-2-ynyloxy)phenyl)piperazine-1-carboxylate] | 75 | 0 | 100 | 0 | 0 | – | – | – | –
O=C(ON1C(=O)C2CN(Cc3ccc(Oc4ccccc4)cc3)CCN2C1=O)N1CCC(c2ccccc2)CC1 (centres unmarked) [Compound 38, 1,3-dioxo-7-(4-phenoxybenzyl)hexahydroimidazo[1,5-a]pyrazin-2(3H)-yl 4-phenylpiperidine-1-carboxylate] | – | – | – | – | – | – | – | – | LYPLA1 in vitro enzyme activity, % @ 20 μM [4, 6]: 0% @; LYPLA2 in vitro enzyme activity, % @ 20 μM [5, 6]: 0% @
